We go through 6 compounds from patent US7566724B2, “Glycine derivative and use thereof” (Toray Industries, Inc., priority 2004, dated 2009).

SMILES strings stand for the structures.

Data set [1] has as its system Jurkat cells. In words: Measurement of Inhibitory Effect on Leukocyte Functions (adhesion of Jurkat cells to ligand-expressing cells or ligand-immobilized plate). Type of data set: cell-based. Conditions: Homo sapiens, 0.5 h; fluorescently labelled Jurkat cells, ligand-expressing cells or ligand-immobilized plate, 37° C. 30 minutes; read-out: IC50 (adhesion of Jurkat cells). As to the method:
Jurkat cells which are a cell line originated from human acute T cell lymphoma were allowed to react with BCECF-AM at 37° C. for 20 minutes to fluorescently label the cells. The fluorescently labelled Jurkat cells were allowed to react with ligand-expressing cells or with a ligand-immobilized plate at 37° C. for 30 minutes. After removing non-adherent cells by washing, 1% NP40 was added to lyse the adherent cells, and fluorescence intensity was measured with Cytoflow 2300 (Millipore). From the obtained fluorescence intensity, the number of adherent cells was calculated. Each test compound was reacted with the Jurkat cells before the beginning of the adhesion reaction. In Table 18, the IC50 of each compound is shown.

In data set [2] the test system is DSS-induced colitis. Briefly: Dextran Sulfate Sodium (DSS)-induced Colitis Model of mice (2). It is filed as in vivo, Female BALB/c mice. As to conditions: orally 5 mg/kg every day from Day 27 to Day 31; DSS 5 to 7 days then water 5 days, repeated 3 times. On the procedure:
Female BALB/c mice (Charles River, Japan) of 7 to 9 weeks old were allowed to freely drink 3 w/v % dextran sulfate sodium (DSS) for 5 to 7 days, and then to freely drink sterilized distilled water for 5 days. The procedure was repeated 3 times to induce colitis. The non-induced (background) group was allowed to freely drink sterilized distilled water. The compounds described in Examples 81 and 84 were orally administered to the mice at a dose of 5 mg/kg, respectively, every day from Day 27 to Day 31 after from the beginning of the drinking, and stool consistency was scored (0: normal stool, 2: loose stool, 4: diarrhea) by using the method described by Murthy et al (see, for example, Dig Dis Sci., 38, 1722 (1993).

The nature of data set [3]: Pharmacokinetic Evaluation in Rats. Type of data set: in vivo. Conditions: rat, male SD rats, administered orally or intravenously, plasma up to 8 hours, LC/MS/MS; for bioavailability: oral, read-out: BA(%) (bioavailability); for clearance: read-out: CLtot (total clearance) (converted). On the procedure:
Each compound was dissolved at a concentration of 0.5 mg/ml in PBS or in PBS containing 10% PEG. The compound was administered orally or intravenously to male SD rats (7 to 9 weeks old). Blood was collected from the tail vein at time points up to 8 hours after the administration, and blood plasma was collected by centrifugation from each obtained blood. The blood plasma was pretreated by using the solid-phase extraction method, and the concentration of the compound was analyzed with LC/MS/MS (ESI negative mode).
As the Comparative Compound, 2-[4-((3,5-dichlorobenzensulfonylamino)methyl)benzoylamino]-5-(4-(methyl-pyrimidin-2-ylamino)phenyl)pento-4-ene acid (XXI) described in WO 99/26923 was used.
[“BA” in Table 17 means bioavailability, and “CLtot” means total clearance.]

For data set [4], the system named is DSS-induced colitis. In words: Dextran Sulfate Sodium (DSS)-induced Colitis Model of Mice (1). Type of data set: in vivo, Female BALB/c mice. Conditions: 3 w/v % DSS for 8 days, scored at day 8. As to the method:
Female BALB/c mice (Charles River, Japan) of 7 to 9 weeks old were allowed to freely drink 3 w/v % dextran sulfate sodium (DSS) for 8 days to induce colitis. The non-induced (background) group was allowed to freely drink sterilized distilled water. The compound described in Example 28 was orally administered to the mice at a dose of 5 mg/kg, and the compounds described in Example 4, Example 22 and Example 78 were orally administered to the mice at a dose of 15 mg/kg every day. At day 8 from the beginning of the drinking, stool consistency was scored (0: normal stool, 2: loose stool, 4: diarrhea) by using the method described by Murthy et al (see, for example, Dig Dis Sci., 38, 1722 (1993)).

Data set [5] concerns leukotriene B4 production by neutrophils. Briefly: Measurement of Inhibitory Effect on Inflammatory Mediator Production by Leukocytes (ionomycin-induced leukotriene B4 in neutrophils). Type of data set: cell-based. As to conditions: 0.5 h, human neutrophil suspension, 37° C. 30 minutes, EIA. On the procedure:
A mixture of human peripheral blood and physiological saline containing 3% dextran was left to stand for 30 minutes and then the upper layer was recovered. The upper layer was overlaid on Histopaque 1077 (SIGMA), and the resultant was centrifuged at 1400 rpm for 30 minutes. The supernatant was removed by aspiration and a buffer was added to the precipitate to prepare a neutrophil suspension (4×10^5 cells/mL). To the neutrophil suspension, ionomycin was added and the mixture was incubated at 37° C. for 30 minutes, followed by quantification of leukotriene B4 by EIA (Amersham, Biotrak EIA system). Each test compound was added to the neutrophil suspension before adding ionomycin. In Table 19, the IC50 of each compound is shown.

For `CC(C)N(c1ccc(/C=C/C[C@H](NC(=O)c2c(Cl)cccc2Cl)C(=O)[O-])cc1)c1ncccn1.[Na+]` [Example 84, (S,E)-2-(2,6-Dichlorobenzamido)-5-[4-(isopropyl-pyrimidin-2-ylamino)phenyl]pent-4-enoic acid sodium salt], the IC50 in data set [1] was found to be 30 nM. Moreover, the “rate of amelioration (stool consistency score)” value (“rate of amelioration” for short) in data set [2] was determined as 82.4%.
`CN(c1ccc(/C=C/CC(NC(=O)c2c(Cl)cccc2Cl)C(=O)O)cc1)c1ncccn1` (centres unmarked) [Example 22, (E)-2-(2,6-Dichlorobenzamido)-5-[4-(methyl-pyrimidin-2-ylamino)phenyl]pent-4-enoic acid]: the bioavailability in data set [3] was 61.7%. The clearance in data set [3] is 5.1 mL/min/kg. Further, the “rate of amelioration” value in data set [4] (orally 15 mg/kg every day) came out at 67%. For the same compound, the IC50 in data set [1] came to 160 nM; in data set [5], 176 µM.
As to `CN(c1ccc(/C=C/C[C@H](NC(=O)c2c(Cl)cccc2Cl)C(=O)[O-])cc1)c1ncccn1.[Na+]` [Example 81, (S,E)-2-(2,6-Dichlorobenzamido)-5-[4-(methyl-pyrimidin-2-ylamino)phenyl]pent-4-enoic acid sodium salt], in data set [3], the bioavailability amounted to 52.1% and the clearance is 17 mL/min/kg. The IC50 in data set [1] came out at 82 nM. The “rate of amelioration” value in data set [2] is recorded as 68.8%.
Consider `COC1(c2ccc(/C=C/C[C@H](NC(=O)c3c(Cl)cccc3Cl)C(=O)[O-])cc2)CCOCC1.[Na+]` [Example 78, (S,E)-2-(2,6-Dichlorobenzamido)-5-[4-(4-methoxytetrahydropyran-4-yl)-phenyl]pent-4-enoic acid sodium salt], for which, in data set [4] (orally 15 mg/kg every day), the “rate of amelioration” value was 40%. The IC50 in data set [1] was found to be 54 nM.
For `COC1(c2ccc(/C=C/CC(NC(=O)c3c(Cl)cccc3Cl)C(=O)O)cc2)CCOCC1` (centres unmarked) [Example 4, (E)-2-(2,6-Dichlorobenzamido)-5-[4-(4-methoxytetrahydropyran-4-yl)-phenyl]pent-4-enoic acid], in data set [3], the bioavailability is 55% and the clearance is 10.1 mL/min/kg. Moreover, the “rate of amelioration” value in data set [4] (orally 15 mg/kg every day) is on record as 44%. Also, the IC50 in data set [1] was 247 nM. This compound displayed an IC50 in data set [5] of 52.3 µM.
Regarding `CC(C)N(c1ccc(/C=C/CC(NC(=O)c2c(Cl)cccc2Cl)C(=O)O)cc1)c1ncccn1` (centres unmarked) [Example 28, (E)-2-(2,6-Dichlorobenzamido)-5-[4-(isopropyl-pyrimidin-2-ylamino)phenyl]pent-4-enoic acid], in data set [3], the bioavailability turned out to be 80.6% and the clearance was 14.9 mL/min/kg. Further, in data set [4] (orally 5 mg/kg every day), the “rate of amelioration” value worked out at 71%. In addition, in data set [1], the IC50 was 56 nM. The IC50 in data set [5] was 7.4 µM.

The term IC50 denotes the concentration that gives 50% inhibition. As usually defined, the bioavailability is the share of a dose that reaches the circulation, judged against a reference dose that is usually intravenous.
